Values after ≈ are worked out from the molar mass of the structure shown.
Key:
Type in all cases: functional
Staphylococcus aureus [1] = assay: Antibacterial activity against methicillin-resistant Staphylococcus aureus N315 assessed as inhibition of bacterial growth by two fold serial dilution method
Enterococcus faecalis = assay: Antibacterial activity against Enterococcus faecalis assessed as inhibition of bacterial growth by two fold serial dilution method
Staphylococcus aureus [2] = assay: Antibacterial activity against Staphylococcus aureus assessed as inhibition of bacterial growth by two fold serial dilution method
Staphylococcus aureus [3] = assay: Antibacterial activity against Staphylococcus aureus 25923 assessed as inhibition of bacterial growth by two fold serial dilution method
Staphylococcus aureus [4] = assay: Antibacterial activity against Staphylococcus aureus 29213 assessed as inhibition of bacterial growth by two fold serial dilution method
Klebsiella pneumoniae = assay: Antibacterial activity against Klebsiella pneumoniae assessed as inhibition of bacterial growth by two fold serial dilution method
Escherichia coli [5] = assay: Antibacterial activity against Escherichia coli assessed as inhibition of bacterial growth by two fold serial dilution method
Escherichia coli [6] = assay: Antibacterial activity against Escherichia coli 25922 assessed as inhibition of bacterial growth by two fold serial dilution method
Pseudomonas aeruginosa [7] = assay: Antibacterial activity against Pseudomonas aeruginosa assessed as inhibition of bacterial growth by two fold serial dilution method
Pseudomonas aeruginosa [8] = assay: Antibacterial activity against Pseudomonas aeruginosa 27853 assessed as inhibition of bacterial growth by two fold serial dilution method
Acinetobacter baumannii = assay: Antibacterial activity against Acinetobacter baumannii assessed as inhibition of bacterial growth by two fold serial dilution method
Candida albicans = assay: Antibacterial activity against Candida albicans 90023 assessed as inhibition of bacterial growth

MIC (Candida albicans) [µM] | SMILES | MIC (Staphylococcus aureus [1]) [µg/mL] | MIC (Enterococcus faecalis) [µg/mL] | MIC (Staphylococcus aureus [2]) [µg/mL] | MIC (Staphylococcus aureus [3]) [µg/mL] | MIC (Staphylococcus aureus [4]) [µg/mL] | MIC (Klebsiella pneumoniae) [µg/mL] | MIC (Escherichia coli [5]) [µg/mL] | MIC (Escherichia coli [6]) [µg/mL] | MIC (Pseudomonas aeruginosa [7]) [µg/mL] | MIC (Pseudomonas aeruginosa [8]) [µg/mL] | MIC (Acinetobacter baumannii) [µg/mL]
– | CCCCc1nc(Cl)c(C2NC(=O)NC(C)=C2C(=O)OCC)n1CCC (stereo not drawn) | 64 (≈ 167 µM) | 32 (≈ 83.6 µM) | 16 (≈ 41.8 µM) | 64 (≈ 167 µM) | 128 (≈ 334 µM) | 64 (≈ 167 µM) | 64 (≈ 167 µM) | 32 (≈ 83.6 µM) | 32 (≈ 83.6 µM) | 64 (≈ 167 µM) | 64 (≈ 167 µM)
– | CCCCc1nc(Cl)c(C2NC(=O)NC(C)=C2C(=O)OCC)n1Cc1cccc(Cl)c1 (stereo not drawn) | 64 (≈ 138 µM) | 64 (≈ 138 µM) | 64 (≈ 138 µM) | 32 (≈ 68.8 µM) | 64 (≈ 138 µM) | 32 (≈ 68.8 µM) | 64 (≈ 138 µM) | 32 (≈ 68.8 µM) | 128 (≈ 275 µM) | 64 (≈ 138 µM) | 32 (≈ 68.8 µM)
– | CCCCc1nc(Cl)c(C2NC(=O)NC(C)=C2C(=O)OCC)n1S(=O)(=O)c1ccccc1 (stereo not drawn) | 128 (≈ 266 µM) | 64 (≈ 133 µM) | 64 (≈ 133 µM) | 128 (≈ 266 µM) | 256 (≈ 532 µM) | 128 (≈ 266 µM) | 64 (≈ 133 µM) | 128 (≈ 266 µM) | 64 (≈ 133 µM) | 64 (≈ 133 µM) | 64 (≈ 133 µM)
– | CCCCc1nc(Cl)c(C2NC(=O)NC(C)=C2C(=O)OCC)n1S(=O)(=O)c1cccc(Cl)c1 (stereo not drawn) | 16 (≈ 31 µM) | 32 (≈ 62.1 µM) | 64 (≈ 124 µM) | 32 (≈ 62.1 µM) | 64 (≈ 124 µM) | 64 (≈ 124 µM) | 64 (≈ 124 µM) | 32 (≈ 62.1 µM) | 128 (≈ 248 µM) | 64 (≈ 124 µM) | 128 (≈ 248 µM)
– | CCCCc1nc(Cl)c(C2NC(=O)NC(C)=C2C(=O)OCC)n1Cc1ccc(C)cc1 (stereo not drawn) | 128 (≈ 288 µM) | 64 (≈ 144 µM) | 64 (≈ 144 µM) | 64 (≈ 144 µM) | 64 (≈ 144 µM) | 128 (≈ 288 µM) | 32 (≈ 71.9 µM) | 32 (≈ 71.9 µM) | 128 (≈ 288 µM) | 64 (≈ 144 µM) | 64 (≈ 144 µM)
– | Cc1cc(NS(=O)(=O)c2ccc(N)cc2)no1 [SULFAMETHOXAZOLE] | 1 (≈ 3.95 µM) | 64 (≈ 253 µM) | 32 (≈ 126 µM) | 128 (≈ 505 µM) | 16 (≈ 63.2 µM) | 32 (≈ 126 µM) | 32 (≈ 126 µM) | 8 (≈ 31.6 µM) | 64 (≈ 253 µM) | 32 (≈ 126 µM) | 32 (≈ 126 µM)
– | CCCCc1nc(Cl)c(C2NC(=O)NC(C)=C2C(=O)OCC)n1CC(=O)N1CCOCC1 (stereo not drawn) | 64 (≈ 137 µM) | 128 (≈ 274 µM) | 64 (≈ 137 µM) | 128 (≈ 274 µM) | 64 (≈ 137 µM) | 32 (≈ 68.4 µM) | 128 (≈ 274 µM) | 256 (≈ 547 µM) | 64 (≈ 137 µM) | 256 (≈ 547 µM) | 128 (≈ 274 µM)
8 (≈ 4.2 µg/mL) | O=c1nc(N(Cc2ccc(Cl)c(Cl)c2)CC(O)(Cn2cncn2)c2ccc(F)cc2F)c(F)c[nH]1 (stereo not drawn) | – | – | – | – | – | – | – | – | – | – | –
– | CCCCc1nc(Cl)c(C2NC(=O)NC(C)=C2C(=O)OCC)n1CCN1CCOCC1 (stereo not drawn) | 64 (≈ 141 µM) | 128 (≈ 282 µM) | 32 (≈ 70.5 µM) | 128 (≈ 282 µM) | 128 (≈ 282 µM) | 64 (≈ 141 µM) | 128 (≈ 282 µM) | 128 (≈ 282 µM) | 256 (≈ 564 µM) | 256 (≈ 564 µM) | 128 (≈ 282 µM)
– | CCCCc1nc(Cl)c(C2NC(=O)NC(C)=C2C(=O)OCC)n1Cc1ccc(F)cc1 (stereo not drawn) | 16 (≈ 35.6 µM) | 32 (≈ 71.3 µM) | 16 (≈ 35.6 µM) | 32 (≈ 71.3 µM) | 32 (≈ 71.3 µM) | 16 (≈ 35.6 µM) | 16 (≈ 35.6 µM) | 16 (≈ 35.6 µM) | 32 (≈ 71.3 µM) | 32 (≈ 71.3 µM) | 32 (≈ 71.3 µM)
– | CCCCc1nc(Cl)c(C2NC(=O)NC(CNS(=O)(=O)c3ccc(N)cc3)=C2C(=O)OCC)[nH]1 (stereo not drawn) | 256 (≈ 501 µM) | 256 (≈ 501 µM) | 128 (≈ 250 µM) | 256 (≈ 501 µM) | 256 (≈ 501 µM) | 256 (≈ 501 µM) | 256 (≈ 501 µM) | 256 (≈ 501 µM) | 256 (≈ 501 µM) | 256 (≈ 501 µM) | 128 (≈ 250 µM)
– | CCCCc1nc(Cl)c(C2NC(=O)NC(C)=C2C(=O)OCC)n1C (stereo not drawn) | 64 (≈ 180 µM) | 128 (≈ 361 µM) | 32 (≈ 90.2 µM) | 256 (≈ 721 µM) | 64 (≈ 180 µM) | 128 (≈ 361 µM) | 128 (≈ 361 µM) | 64 (≈ 180 µM) | 64 (≈ 180 µM) | 256 (≈ 721 µM) | 64 (≈ 180 µM)
– | CCCCc1nc(Cl)c(C2NC(=O)NC(C)=C2C(=O)OCC)n1S(=O)(=O)c1ccc(C(C)(C)C)cc1 (stereo not drawn) | 64 (≈ 119 µM) | 128 (≈ 238 µM) | 64 (≈ 119 µM) | 32 (≈ 59.6 µM) | 64 (≈ 119 µM) | 128 (≈ 238 µM) | 64 (≈ 119 µM) | 64 (≈ 119 µM) | 256 (≈ 477 µM) | 64 (≈ 119 µM) | 128 (≈ 238 µM)

Source: ChEMBL document CHEMBL5143590, “Dihydropyrimidinone imidazoles as unique structural antibacterial agents for drug-resistant gram-negative pathogens” (Eur J Med Chem, 2022)
